Measured values as given in patent US8653048B2 (Sanlugen Pharmatech Ltd., priority 2009, dated 2014).
Where two headings read alike, the source gives them in different places.

Assay: Pharmacokinetics of gemcitabine in mice, intravenous and oral
Type: in vivo
Conditions: both sexes, Kunming, mouse, plasma, 50 mg/kg; for MRT last: read-out: MRT0-t
Protocol: Kunming strain white mice (25+1 g, provided by Experimental Animal Center of Shandong University, half of which were male, half were female).
The solution was filtered and sterilized using a 0.22 μm microfiltration membrane.
120 healthy Kunming mice were taken and divided into two groups randomly. […] The second group was given gemcitabine by intravenous injection in a tail vein. Five mice were settled parallel at each time point. The dosage was 50 mg/kg (equivalent to 0.2 mL per mouse). The mice were fasted but allowed to drink for a 12 h period before administration. Blood samples were drawn from eyebase veniplex at 5 min, 15 min, 30 min, 45 min, 1 h, 2 h, 4 h, 6 h, 8 h, 12 h, 24 h, 48 h after the administration and put into hepain sodium treated centrifuge tubes containing 2.5 μL tetrahydrouridine solution (THU, 10 mg/ml) and centrifuged for 15 min at 4000 r/min. Isopropanol (1 mL) was added into the solution and vortexed for 30 s and kept still for 5 min. 2.5 ml of EtOAc was added and votexed and centrifuged at 4000 rpm for 15 minutes. The supernatant was taken and dried by blowing in nitrogen. The dried sample was redissolved in 200 μL HPLC mobile phase solution. 20 μL sample was loaded to the HPLC. The chromatography and peak area were recorded.

Which results are given for `Nc1ccn([C@@H]2O[C@H](CO)[C@@H](O)C2(F)F)c(=O)n1` [Gemcitabine, gemcitabine, reference compound]?
AUC(0-t) (iv): 11300 ng·h/mL; Cmax (iv): 11500 ng/mL; Tmax (iv): 4.98 min; half-life (iv): 58.2 min; MRT last (iv): 64.2 min; bioavailability (oral, AUCoral/AUCiv, mice, read-out: Absolute bioavailability): 35.6%; AUC(0-t) (po): 4020 ng·h/mL; Cmax (po): 2600 ng/mL; Tmax (po): 30 min; half-life (po): 49.8 min; MRT last (po): 76.8 min
